These are literature values, as cited in PMC10590117 (International Journal of Nanomedicine, 2023).

For the data set the following is noted: humans.

With `COc1cc(/C=C/C(=O)CC(=O)/C=C/c2ccc(O)c(OC)c2)ccc1O` [curcumin, Curcumin], the Peroral bioavailability is recorded as ~1%.
